Test results reported in publication PMC6556231 (Journal of medicinal chemistry, 2019).
“Also recorded” adds a separate entry of the source.

Tests used:
[1] = Human liver microsomal Clint; type: in vitro ADME; details: for microsomal CLint: human, HLM Clint (μL/min/mg); for microsomal CLint / HLM Clint: human liver microsomes
[2] = Preliminary toxicity study in mice; type: in vivo; details: 100 mg/kg orally
[3] = system: Salmonella typhimurium strains; test: Ames fluctuation assay; type: cell-based; details: with and without rat liver S9 fraction
[4] = Chemical stability; type: physicochemical
[5] = system: HepG2 cells; test: Drug toxicity to HepG2 cells; type: cell-based, human; details: 48 h, MTT
[6] = Human plasma protein binding; type: in vitro ADME; details: equilibrium dialysis, 18 h, 37 °C
[7] = Aqueous pH 7.4; type: physicochemical; details: 0.1 M phosphate buffer pH 7.4, 25 °C, 20-24 h

Cc1cc2c(Nc3cnccn3)ccnc2cc1-c1cnc(N2CCN(C)CC2)nc1 [9a, 6-Methyl-7-(2-(4-methylpiperazin-1-yl)pyrimidin-5-yl)-N-(pyrazin-2-yl)quinolin-4-amine]
microsomal CLint [1]: 130 µL/min/mg

Cc1c(-c2cnc(N3CCN(C)CC3)nc2)ccc2c(Nc3cnccn3)ccnc12 [9b, 8-Methyl-7-(2-(4-methylpiperazin-1-yl)pyrimidin-5-yl)-N-(pyrazin-2-yl)quinolin-4-amine]
microsomal CLint [1]: 120 µL/min/mg

CN1C[C@@H]2C[C@H]1CN2c1ncc(-c2ccc3c(Nc4cnccn4)ccnc3c2)cn1 [10a, 7-(2-((1S,4S)-5-Methyl-2,5-diazabicyclo[2.2.1]heptan-2-yl)pyrimidin-5-yl)-N-(pyrazin-2-yl)quinolin-4-amine]
Increase in metabolic stability compared to 1 [1]: 4 fold

CN1C[C@H]2C[C@@H]1CN2c1ncc(-c2ccc3c(Nc4cnccn4)ccnc3c2)cn1 [10b, 7-(2-((1R,4R)-5-Methyl-2,5-diazabicyclo[2.2.1]heptan-2-yl)pyrimidin-5-yl)-N-(pyrazin-2-yl)quinolin-4-amine]
Increase in metabolic stability compared to 1 [1]: 4 fold

CN1CCN(Nc2ncc(-c3ccc4c(Nc5cnccn5)ccnc4c3)cn2)CC1 [16f, 7-(2-((4-Methylpiperazin-1-yl)amino)pyrimidin-5-yl)-N-(pyrazin-2-yl)quinolin-4-amine]
Increase in metabolic stability compared to 1 [1]: 10 fold
HLM Clint [1]: 16 µL/min/mg

CN1CCCN(c2ncc(-c3ccc4/c(=N/c5cnccn5)ccn(C)c4c3)cn2)CC1 [22a, (E)-1-Methyl-7-(2-(4-methyl-1,4-diazepan-1-yl)pyrimidin-5-yl)-N-(pyrazin-2-yl)quinolin-4(1H)-imine]
microsomal CLint [1]: 22 µL/min/mg
Adverse effects in preliminary toxicity study [2]: no adverse effects
Genotoxicity [3]: Neither 22a or its metabolites were found to be genotoxic; also recorded: neither it, nor its metabolites, are genotoxic
Hydrolytic stability ([4]; acidic and basic conditions): hydrolytic stability was confirmed under both acidic and basic conditions
Stability to hard and soft nucleophile ([4]; glutathione and cyanide): stable in the presence of both glutathione and cyanide

tert-Butyl methyl(2-((4-(4-(pyrazin-2-ylamino)quinolin-7-yl)phenyl)amino)ethyl)carbamate [6c]
HepG2 TC50 [5]: 8.0 µM
HLM Clint [1]: >300 µL/min/mg
Human PPB (%) [6]: 95%
Aq sol (μM) (thermodynamic solubility) [7]: 3.0 µM
